In one assay the target is JNK2 (Homo sapiens (Human), UniProt P45984). In words: ICKP protein kinase panel screening. The settings on record: duplicate assays, read-out: mean % residual activity. The assay is classed as biochemical. Here is the method: (§1) FIG. 4 illustrates the studies carried out for compounds 67 and 69. Compounds 67 and 69 (FIG. 4B) were evaluated at the International Center For Kinase Profiling (ICKP, Dundee, Scotland) toward a panel of 13 protein kinases. The results (FIG. 4A) were expressed as the mean percentage of residual activity at 1 μM concentration (duplicate assays). Small disks: ≥90%, larger disk: 59%, for both compounds. The tree was generated using the Kinome Render software, and the illustration reproduced courtesy of Cell Signaling Technology, Inc. (www.cellsignal.com) Chartier et al PeerJ 2013, 1:e126.
(§2) Results are expressed as the mean percentage of residual activity at 10 μM (Table 3) or 1 μM (Table 4). They are illustrated on FIGS. 3 and 4.
(§3) The selectivity of compound 69 was evaluated at 1 μM toward another panel containing all four p38 MAPK isoforms, ERK1, ERK2 as well as other protein kinases close to p38α MAPK in the kinome phylogenetic tree (FIG. 4, Table 4). […] Its IC50 toward p38α MAPK was determined, showing a value in the micromolar range (IC50=3.0±0.1 μM).

A further assay has as its target ERK5 (Homo sapiens (Human), UniProt Q13164). In words: ICKP protein kinase panel screening. The assay is classed as biochemical. Conditions: duplicate assays, read-out: mean % residual activity. As for the experimental part:
as §1, §2, §3

A further assay concerns the target p38d MAPK (Homo sapiens (Human), UniProt O15264). In words: ICKP protein kinase panel screening. The assay is classed as biochemical. The settings on record: duplicate assays, read-out: mean % residual activity. Here is the method:
as §1, §2, §3

The target in a further assay is ERK1 (Homo sapiens (Human), UniProt P27361). Put plainly: ICKP protein kinase panel screening. The assay is classed as biochemical. The settings on record: duplicate assays, read-out: mean % residual activity. As for the experimental part:
as §1, §2, §3

In a further assay the target is JNK3 (Homo sapiens (Human), UniProt P53779). In words: ICKP protein kinase panel screening. The assay is classed as biochemical. Conditions: duplicate assays, read-out: mean % residual activity. Here is the method:
as §1, §2, §3

The target of a further assay is CDK5 (Homo sapiens (Human), UniProt Q00535). In words: ICKP protein kinase panel screening. The assay is classed as biochemical. The settings on record: duplicate assays, read-out: mean % residual activity. Here is the method:
as §1, §2, §3

The next assay has as its target ERK8 (Homo sapiens (Human), UniProt Q8TD08). Put plainly: ICKP protein kinase panel screening. The assay is classed as biochemical. The settings on record: duplicate assays, read-out: mean % residual activity. As for the experimental part:
as §1, §2, §3

A further assay deals with p38b MAPK (Homo sapiens (Human), UniProt Q15759). In words: ICKP protein kinase panel screening. Conditions: duplicate assays, read-out: mean % residual activity. The assay is classed as biochemical. As for the experimental part: as §1, §2, §3
The next assay deals with CDK2-Cyclin A (Homo sapiens (Human), UniProt P24941). Put plainly: ICKP protein kinase panel screening. The assay is classed as biochemical. Conditions: duplicate assays, read-out: mean % residual activity. Here is the method: as §1, §2, §3
For another assay, the target named is ERK2 (Homo sapiens (Human), UniProt P28482). In words: ICKP protein kinase panel screening. Conditions: duplicate assays, read-out: mean % residual activity. The assay is classed as biochemical. Here is the method: as §1, §2, §3
The target in a further assay is p38g MAPK (Homo sapiens (Human), UniProt P53778). In words: ICKP protein kinase panel screening. The assay is classed as biochemical. The settings on record: duplicate assays, read-out: mean % residual activity. As for the experimental part: as §1, §2, §3
The subject of assay [1] is inflammatory MA (face CFA model). Put plainly: Face Complete Freund's Adjuvant (CFA) model of inflammatory mechanical allodynia. The assay is classed as in vivo. The settings on record: rat. Here is the method:
FIG. 1 illustrates the results obtained by the intracisternal application of compounds 19-24, 66-72 and 74-82. These compounds prevent face MA in a rat model of inflammatory pain (Complete Freund's Adjuvant (CFA), n=4-6 rats for each compound). For this assay, compounds (5 μL at 100 μM) or control vehicle were intra-cisternally administred 30 min before CFA injection.
Face Complete Freund's Adjuvant (CFA) Model.
CFA (Becton Dickinson) was dissolved in saline solution containing Tween 80 and paraffin oil and conserved at 4° C. For the behavioral tests, animals were briefly (<2 min) anesthetized using a mask with 2% isoflurane and received a subcutaneous injection of 25 μL of CFA (2.5 mg/kg) solution into the right vibrissa pad using a 27 Ga needle coupled to a 25 μL Hamilton syringe, as described previously. After injection, animals were awakened from anesthesia and placed in the behavioral experimental room, followed by a 120 min mechanical testing period.
Intracisternal Injection:
For investigating the effects of synthetized compounds upon mechanical allodynia, animals were briefly (<2 min) anesthetized using a mask with 2% isoflurane and received an intracisternal injection of 5 μL of compound (100 μM) or vehicle alone (saline+1% DMSO) using a 10 μL Hamilton syringe. After recovery (<2 min), rats were placed in an observation field (0.6×0.6 m square) under red light for a period test. 6-g von Frey filament was gently applied every 15 or 30 min onto the orofacial region by a first experimenter. The behavioral responses were observed and quantified by a second experimenter (see below).
Behavioral Responses to Normally Innocuous (6-g Von Frey Filament) Mechanical Stimulation.
The behavioral responses procedure was previously developed by Vos et al. 1994. A rat's response to mechanical stimulation consisted of one or more of the following elements: (1) detection, rat turn head toward stimulus; (2) withdrawal reaction, rat pull paw away or turn head away or pull it briskly backward when stimulation is applied (a withdrawal reaction is assumed to include a detection element preceding the head withdrawal and therefore consists of two responses elements); (3) escape/attack, rats avoid further contact with the stimulus, either passively by moving their bodies away from the stimulus, or actively by attacking the tip of the […]; (4) asymmetric grooming, rats display an uninterrupted series of at least three wash strokes directed to the stimulated area.
The in vivo efficacy of some compounds was evaluated on a rat model of inflammatory MA (face CFA model; Alba-Delgado et al J. Neurosci. 2018, 38, 10489-10504) (FIG. 1). After receiving a subcutaneous injection of 25 μL of CFA (2.5 mg/kg) into the right vibrissa pad, rats develop a MA that lasts days. […] In this model of inflammatory MA, MA was suppressed in compound 69 treated rats, in comparison to animals treated with vehicle (FIG. 2A).

Entries after “also recorded” stand apart in the source; their conditions may differ.

Sequence of p38d MAPK (O15264 whole entry): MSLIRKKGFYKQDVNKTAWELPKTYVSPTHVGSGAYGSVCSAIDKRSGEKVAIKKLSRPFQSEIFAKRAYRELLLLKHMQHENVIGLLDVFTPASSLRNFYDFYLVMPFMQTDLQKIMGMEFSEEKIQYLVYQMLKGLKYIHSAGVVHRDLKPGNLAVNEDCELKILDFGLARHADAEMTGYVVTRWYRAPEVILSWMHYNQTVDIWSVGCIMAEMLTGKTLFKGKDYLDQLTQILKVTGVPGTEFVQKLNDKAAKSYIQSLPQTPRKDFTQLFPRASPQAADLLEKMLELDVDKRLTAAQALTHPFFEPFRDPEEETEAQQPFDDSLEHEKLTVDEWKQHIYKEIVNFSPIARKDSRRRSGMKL
Sequence of ERK1 (P27361 whole entry): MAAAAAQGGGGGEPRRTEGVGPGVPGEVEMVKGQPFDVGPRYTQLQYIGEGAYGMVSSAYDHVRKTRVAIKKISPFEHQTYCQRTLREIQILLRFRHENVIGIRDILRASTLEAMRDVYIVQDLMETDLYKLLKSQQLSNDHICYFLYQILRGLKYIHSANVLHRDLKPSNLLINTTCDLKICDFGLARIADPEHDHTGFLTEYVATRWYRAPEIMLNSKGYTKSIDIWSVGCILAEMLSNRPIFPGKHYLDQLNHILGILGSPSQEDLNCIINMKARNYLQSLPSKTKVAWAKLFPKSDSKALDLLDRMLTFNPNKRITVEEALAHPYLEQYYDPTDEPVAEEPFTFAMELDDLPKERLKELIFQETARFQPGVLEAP
Sequence of JNK2 (P45984 whole entry): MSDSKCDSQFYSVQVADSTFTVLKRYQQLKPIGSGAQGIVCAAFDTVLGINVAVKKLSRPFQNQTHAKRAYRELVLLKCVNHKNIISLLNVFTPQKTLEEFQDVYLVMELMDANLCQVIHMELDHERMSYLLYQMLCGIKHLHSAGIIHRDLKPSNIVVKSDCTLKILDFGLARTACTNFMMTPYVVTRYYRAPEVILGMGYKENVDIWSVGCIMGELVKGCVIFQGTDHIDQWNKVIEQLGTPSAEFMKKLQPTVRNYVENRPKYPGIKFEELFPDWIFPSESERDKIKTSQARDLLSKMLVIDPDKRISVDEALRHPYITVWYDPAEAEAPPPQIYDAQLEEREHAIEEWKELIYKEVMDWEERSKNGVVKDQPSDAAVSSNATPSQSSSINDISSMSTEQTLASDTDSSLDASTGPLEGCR
Sequence of CDK5 (Q00535 whole entry): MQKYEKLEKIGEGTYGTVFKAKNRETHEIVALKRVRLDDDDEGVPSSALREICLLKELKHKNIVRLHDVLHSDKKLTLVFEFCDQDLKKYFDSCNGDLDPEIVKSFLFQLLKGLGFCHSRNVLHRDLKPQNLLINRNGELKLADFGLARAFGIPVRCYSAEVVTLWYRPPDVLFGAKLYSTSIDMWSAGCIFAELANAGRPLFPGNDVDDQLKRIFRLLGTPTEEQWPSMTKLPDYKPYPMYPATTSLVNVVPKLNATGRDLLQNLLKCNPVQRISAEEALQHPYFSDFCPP
Sequence of CDK5 (Q15078 whole entry partner): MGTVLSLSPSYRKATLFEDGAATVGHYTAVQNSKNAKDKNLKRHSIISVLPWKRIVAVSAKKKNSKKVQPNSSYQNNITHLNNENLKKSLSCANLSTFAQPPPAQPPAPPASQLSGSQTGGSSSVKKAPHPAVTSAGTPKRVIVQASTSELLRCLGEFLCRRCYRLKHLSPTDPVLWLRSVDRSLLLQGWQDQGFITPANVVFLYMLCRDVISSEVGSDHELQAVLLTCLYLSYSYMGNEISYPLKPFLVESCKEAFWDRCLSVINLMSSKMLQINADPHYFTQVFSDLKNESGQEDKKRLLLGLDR
Sequence of ERK2 (P28482 whole entry): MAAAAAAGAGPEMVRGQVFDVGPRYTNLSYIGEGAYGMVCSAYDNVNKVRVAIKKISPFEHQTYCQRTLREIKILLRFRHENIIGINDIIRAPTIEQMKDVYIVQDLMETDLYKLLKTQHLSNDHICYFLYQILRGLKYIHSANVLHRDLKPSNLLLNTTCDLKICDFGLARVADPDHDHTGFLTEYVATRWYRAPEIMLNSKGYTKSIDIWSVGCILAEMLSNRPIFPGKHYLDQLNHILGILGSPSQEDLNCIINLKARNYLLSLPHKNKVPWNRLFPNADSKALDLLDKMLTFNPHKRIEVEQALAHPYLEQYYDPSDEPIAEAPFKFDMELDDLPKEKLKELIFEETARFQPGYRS
Sequence of p38g MAPK (P53778 whole entry): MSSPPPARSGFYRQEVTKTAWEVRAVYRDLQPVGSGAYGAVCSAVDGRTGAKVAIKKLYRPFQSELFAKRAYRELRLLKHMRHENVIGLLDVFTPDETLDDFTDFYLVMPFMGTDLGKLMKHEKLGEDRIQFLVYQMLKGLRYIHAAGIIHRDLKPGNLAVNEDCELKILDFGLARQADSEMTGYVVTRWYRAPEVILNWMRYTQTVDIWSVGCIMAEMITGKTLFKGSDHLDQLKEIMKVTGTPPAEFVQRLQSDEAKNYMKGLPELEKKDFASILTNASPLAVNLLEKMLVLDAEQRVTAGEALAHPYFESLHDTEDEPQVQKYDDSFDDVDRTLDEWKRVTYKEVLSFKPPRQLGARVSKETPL
Sequence of JNK3 (P53779 whole entry): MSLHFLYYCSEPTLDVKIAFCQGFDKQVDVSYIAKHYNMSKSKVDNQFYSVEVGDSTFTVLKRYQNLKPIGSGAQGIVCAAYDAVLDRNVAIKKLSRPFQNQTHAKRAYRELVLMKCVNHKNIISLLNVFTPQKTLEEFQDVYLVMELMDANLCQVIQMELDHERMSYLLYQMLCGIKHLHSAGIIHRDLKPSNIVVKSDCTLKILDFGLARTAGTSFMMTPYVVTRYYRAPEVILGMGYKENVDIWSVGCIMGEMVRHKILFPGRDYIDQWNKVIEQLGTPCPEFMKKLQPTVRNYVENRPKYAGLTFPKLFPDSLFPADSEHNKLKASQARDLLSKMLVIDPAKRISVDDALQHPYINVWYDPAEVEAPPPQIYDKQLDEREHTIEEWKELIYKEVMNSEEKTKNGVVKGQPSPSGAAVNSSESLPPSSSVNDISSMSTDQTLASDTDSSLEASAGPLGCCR
Sequence of p38b MAPK (Q15759 whole entry): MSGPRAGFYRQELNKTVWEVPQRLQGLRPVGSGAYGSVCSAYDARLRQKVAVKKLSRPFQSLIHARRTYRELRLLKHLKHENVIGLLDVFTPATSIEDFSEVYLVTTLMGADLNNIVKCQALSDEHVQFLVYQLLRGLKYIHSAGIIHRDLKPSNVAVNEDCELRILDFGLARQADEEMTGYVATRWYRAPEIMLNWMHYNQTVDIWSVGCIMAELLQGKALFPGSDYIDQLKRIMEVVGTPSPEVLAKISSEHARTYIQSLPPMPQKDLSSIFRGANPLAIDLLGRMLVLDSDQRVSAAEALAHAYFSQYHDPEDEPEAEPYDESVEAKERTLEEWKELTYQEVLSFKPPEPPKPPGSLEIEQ
Sequence of ERK5 (Q13164 whole entry): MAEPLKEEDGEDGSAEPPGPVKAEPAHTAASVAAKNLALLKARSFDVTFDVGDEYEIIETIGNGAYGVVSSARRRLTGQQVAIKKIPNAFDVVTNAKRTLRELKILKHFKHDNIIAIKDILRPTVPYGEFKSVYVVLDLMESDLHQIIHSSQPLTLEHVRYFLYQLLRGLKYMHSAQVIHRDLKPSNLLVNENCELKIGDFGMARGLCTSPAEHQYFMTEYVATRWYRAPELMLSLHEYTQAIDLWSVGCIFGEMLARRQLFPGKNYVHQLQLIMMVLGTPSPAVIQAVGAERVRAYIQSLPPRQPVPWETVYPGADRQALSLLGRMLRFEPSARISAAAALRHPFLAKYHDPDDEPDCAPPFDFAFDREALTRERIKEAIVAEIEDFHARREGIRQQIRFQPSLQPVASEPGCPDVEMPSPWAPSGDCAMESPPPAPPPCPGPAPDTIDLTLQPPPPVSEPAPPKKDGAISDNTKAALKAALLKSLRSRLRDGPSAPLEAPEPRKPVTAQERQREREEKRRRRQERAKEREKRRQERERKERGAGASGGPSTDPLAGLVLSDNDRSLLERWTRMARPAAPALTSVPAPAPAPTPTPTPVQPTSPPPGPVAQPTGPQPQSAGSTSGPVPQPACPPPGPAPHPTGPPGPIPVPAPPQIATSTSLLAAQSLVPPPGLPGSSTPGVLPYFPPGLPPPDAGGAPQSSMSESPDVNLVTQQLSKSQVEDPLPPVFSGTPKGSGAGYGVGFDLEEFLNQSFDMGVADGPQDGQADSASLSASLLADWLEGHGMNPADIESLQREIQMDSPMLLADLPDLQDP
Sequence of ERK8 (Q8TD08 whole entry): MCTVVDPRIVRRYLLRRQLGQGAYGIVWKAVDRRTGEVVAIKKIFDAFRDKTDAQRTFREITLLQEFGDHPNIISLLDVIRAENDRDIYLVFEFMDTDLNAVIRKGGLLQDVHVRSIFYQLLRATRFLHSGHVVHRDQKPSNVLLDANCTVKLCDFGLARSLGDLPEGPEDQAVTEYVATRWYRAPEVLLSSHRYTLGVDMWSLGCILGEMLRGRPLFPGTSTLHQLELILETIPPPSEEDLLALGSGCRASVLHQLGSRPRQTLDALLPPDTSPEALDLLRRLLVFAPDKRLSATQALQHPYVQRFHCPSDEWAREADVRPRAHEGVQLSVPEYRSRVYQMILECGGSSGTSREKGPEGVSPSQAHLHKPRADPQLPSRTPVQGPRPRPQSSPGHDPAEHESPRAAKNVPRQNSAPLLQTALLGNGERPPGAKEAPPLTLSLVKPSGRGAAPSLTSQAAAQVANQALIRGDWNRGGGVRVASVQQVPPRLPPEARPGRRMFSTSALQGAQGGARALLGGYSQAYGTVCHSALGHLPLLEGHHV

For `O=c1[nH]cc(Nc2ccccc2)cc1-c1ccccc1Br` [Compound 69, 3-(2-Bromophenyl)-5-(phenylamino)pyridin-2(1H)-one], the remaining activity at 1 µM at JNK2 turned out to be 103%; at ERK5 it was 101%; at p38d MAPK, 112%; at ERK1, 120%; on JNK3, 115%; on CDK5 it was 103%. Further, the remaining activity at 1 µM on ERK8 turned out to be 144%; at p38b MAPK it was 116%; at CDK2-Cyclin A, 119%; on ERK2, 109%; at p38g MAPK, 103%. Further, in assay [1] (intracisternal 5 μL at 10 μM or 100 μM, 30 min before CFA, skepinone 60 μg/rat), the “prevention of inflammatory MA (allodynic score), compared with skepinone” value was “completely suppressed; also recorded: much more potent than skepinone”. The “prevention of inflammatory MA (allodynic score, 6-g von Frey filament)” value in [1] (intracisternal 5 μL at 100 μM, 30 min before CFA) was “most active; also recorded: high activities; also recorded: potent preventing effect; also recorded: completely suppressed”. Also, in [1] (intracisternal 5 μL at 100 μM, 30 min before CFA injection), the “inhibition of inflammatory MA” value worked out at 99%.
